Measured values as given in article PMC2683906 (Chemical research in toxicology, 2009).

Assays:
globin = conditions: rats and mice exposed to 1,3-[2,3-14C]-butadiene; cited from earlier work
[1] = 6.25 to 1000 ppm, mice and rats; cited from earlier work
[2] = cited from earlier work
[3] = rodents given BDD or BMO; cited from earlier work
[4] = cited from earlier work; remark: listed apart in the source
[5] = buffer, pH 9
[6] = buffer, pH 7.4
[7] = buffer, pH 9; remark: listed apart in the source

Q: Which “Total globin radioactivity characterized as trihydroxybutyl adducts” value (globin) does the source give for `C=[14CH][14CH]=C` [1,3-[2,3-^14C]-butadiene] here?
A: Its value is 1−2%.

Q: What does the source list for `C=CC=C` [BD, 1,3-Butadiene]?
A: Tumor formation after long-term inhalation exposure [1]: tumor formation at multiple organ sites; International Agency for Research on Cancer classification [2]: are carcinogenic to humans; National Toxicology Program classification [2]: known to be a human carcinogen

Q: With `C=CC(O)CO` (centres unmarked) [BDD, 3-butene-1,2-diol] as the molecule, how does the “Amount of BDD detected in the urine” value [3] read?
A: The value was less than 5%.

Q: And the “HMVK-derived mercapturates as share of the administered BDD dose” value [4]?
A: The value was 4−8%.

Q: What does the source list for `C=CC(=O)CO` [HMVK, hydroxymethylvinyl ketone]?
A: Time at which all of HMVK was consumed (HMVK 3 mM, NAC 6 mM, pH 7.4, 37 °C): 0.5 h; Estimated half-life of HMVK, HMVK + NAC (buffer, pH 7.4): instantaneous; Estimated half-life of HMVK, HMVK + L-valinamide [5]: 13.5 min; Half-life of HMVK in the absence of nucleophilic amino acids [6]: a Half-life of HMVK when incubated at a concentration of 3 mM at pH 7.4, 37 °C in the absence of nucleophilic amino acids was determined to be 710 min. ND, not determined. Half-lives were estimated assuming pseudo-first order kinetics. Data is representative of typical experimental values.; Estimated half-life of HMVK, HMVK + NAL [7]: 45 min
